Assay results as given in patent US7405214B2, “Nucleoside derivatives and therapeutic use thereof” (Rexahn Corporation, priority 2004, dated 2008).

Experiments:
MKN-45 (stomach) = test: SRB cell growth inhibition assay, MKN-45; assay type: cell-based; settings: Homo sapiens, MKN-45, 96 hours
Text: (§1) Cancer cell lines to determine the effect of nucleoside compounds were obtained from the following sources: Human OVCAR-3 (ovary), MCF-7 (breast, hormone-dependent), MDA-MB-231 (breast), HeLa (cervix), PC3 (prostate), LNCap (prostate), HepG2 (liver), A549 (lung), NCI-H226 (lung), HT-29 (colon), HCT116 (colon), SK-MEL-28 (melanoma) and PANC-1 (pancreas) from the American Type Culture Collection (ATCC) (Manassas, Va.); U251 (brain) from Riken (Japan); MKN-45 (stomach) from DSMZ (Germany); UMRC2 (kidney) from the United States National Cancer Institute (Bethesda, Md.). […]
(§2) The growth inhibition assay of RX-3117 against 16 human tumor cell lines was performed using the Sulforhodamine B (“SRB”) method (Skehan et al., J. National Cancer Institute, 82: 1107-1112 (1990)). […] After 5 minutes agitation in 10 mM Tris solution, the absorbance of each well was measured at 530 nm using Benchmark Plus Microplate reader (Bio-Rad Laboratories, Hercules, Calif.).
(§3) To translate the OD530 values into the number of live cells in each well, the OD530 values were compared to those on standard OD530—versus—cell number curves generated for each cell line. The percent survival was calculated using the formula: % Survival=live cell number[test]/live cell number[control]×100
(§4) The IC50 values were calculated by non-linear regression analysis.

[1] = tested on: HCT116 human colon carcinoma xenografts; test: Xenograft study in nude mice; assay type: in vivo; settings: intraperitoneal, three times per week day 5 to day 37; for tumor volume compared to the controls: after day 37
Protocol: In order to observe the inhibition of growth of tumor in an animal model, an […] xenograft study of nude mice was conducted utilizing RX-3117. Suitable human cancer cell lines are those that have been tested already for inhibition of cancer cell growth, and particularly preferred was colon carcinoma HCT116. The antitumor efficacy of RX-3117 was evaluated against subcutaneously injected tumor xenografts in nude mice and tumor volume was measured after the treatment of RX-3117.
HCT116 cell suspension (2×10^6 cells in 0.1 ml of RPMI) was injected subcutaneously into the right flank of six-week-old male athymic mice (BALB/c nu/nu) on day 0. A sufficient number of mice were injected with HCT116 cell suspension so that tumors in a volume range as narrow as possible were selected for the trial on the day of treatment initiation. Animals with tumors in the proper size range were assigned to various treatment groups. RX-3117 was dissolved in 10% DMSO in PBS and solvent alone served as control. All study medications (control, RX-3117: 2 mg/kg/day, RX-3117: 10 mg/kg/day) were given by intraperitoneal injections three times per week starting from day 5 and ending on day 37. To quantify tumor growth, three perpendicular diameters of the tumors were measured with calipers every 3-5 days, and the body weight of the mice was monitored for toxicity. The tumor volume was calculated using the formula: tumor volume (mm^3)=(width)×(length)×(height)×π/6.

MDA-MB-231 (breast) = test: SRB cell growth inhibition assay, MDA-MB-231; assay type: cell-based; settings: Homo sapiens, MDA-MB-231, 96 hours
Text: as §1, §2, §3, §4

UMRC2 (kidney) = test: SRB cell growth inhibition assay, UMRC2; assay type: cell-based; settings: Homo sapiens, UMRC2, 96 hours
Text: as §1, §2, §3, §4

PC3 (prostate) = test: SRB cell growth inhibition assay, PC3; assay type: cell-based; settings: Homo sapiens, PC3, 96 hours
Text: as §1, §2, §3, §4

NCI-H226 (lung) = test: SRB cell growth inhibition assay, NCI-H226; assay type: cell-based; settings: Homo sapiens, NCI-H226, 96 hours
Text: as §1, §2, §3, §4

PANC-1 (pancreas) = test: SRB cell growth inhibition assay, PANC-1; assay type: cell-based; settings: Homo sapiens, PANC-1, 96 hours
Text: as §1, §2, §3, §4

U251 (brain) = test: SRB cell growth inhibition assay, U251; assay type: cell-based; settings: Homo sapiens, U-251, U251, 96 hours
Text: as §1, §2, §3, §4

HCT116 (colon) = test: SRB cell growth inhibition assay, HCT116; assay type: cell-based; settings: Homo sapiens, HCT-116, HCT116, 96 hours
Text: as §1, §2, §3, §4

[2] = tested on: MCF-7 (breast, hormone-dependent); test: SRB cell growth inhibition assay, MCF-7; assay type: cell-based; settings: Homo sapiens, MCF7, MCF-7, 96 hours
Text: as §1, §2, §3, §4

HeLa (cervix) = test: SRB cell growth inhibition assay, HeLa; assay type: cell-based; settings: Homo sapiens, 96 hours
Text: as §1, §2, §3, §4

A549 (lung) = test: SRB cell growth inhibition assay, A549; assay type: cell-based; settings: Homo sapiens, A549, 96 hours
Text: as §1, §2, §3, §4

SK-MEL-28 (melanoma) = test: SRB cell growth inhibition assay, SK-MEL-28; assay type: cell-based; settings: Homo sapiens, SK-MEL-28, 96 hours
Text: as §1, §2, §3, §4

OVCAR-3 (ovary) = test: SRB cell growth inhibition assay, OVCAR-3; assay type: cell-based; settings: Homo sapiens, OVCAR-3, 96 hours
Text: as §1, §2, §3, §4

LnCap (prostate) = test: SRB cell growth inhibition assay, LnCap; assay type: cell-based; settings: Homo sapiens, 96 hours
Text: as §1, §2, §3, §4

HepG2 (liver) = test: SRB cell growth inhibition assay, HepG2; assay type: cell-based; settings: Homo sapiens, HepG2, 96 hours
Text: as §1, §2, §3, §4

HT-29 (colon) = test: SRB cell growth inhibition assay, HT-29; assay type: cell-based; settings: Homo sapiens, HT-29, 96 hours
Text: as §1, §2, §3, §4

## Nc1ccn([C@@H]2C(F)=C(CO)[C@@H](O)[C@H]2O)c(=O)n1 [RX-3117, (1S,4R,5S)-4-Amino-1-(2-fluoro-4,5-dihydroxy-3-hydroxymethyl-cyclopent-2-enyl)-1H-pyrimidin-2-one]
MKN-45 (stomach)
  IC50: 340 nM
[1]; 2 mg/kg/day
  tumor volume compared to the controls: significantly reduced
[1]; 10 mg/kg/day
  tumor volume compared to the controls: significantly reduced
[1]; 2 and 10 mg/kg/day
  body weight fluctuations: no more than 1 g
MDA-MB-231 (breast)
  IC50: 180 nM
UMRC2 (kidney)
  IC50: 830 nM
PC3 (prostate)
  IC50: 630 nM
NCI-H226 (lung)
  IC50: 250 nM
PANC-1 (pancreas)
  IC50: 620 nM
U251 (brain)
  IC50: 830 nM
HCT116 (colon)
  IC50: 190 nM
[2]
  IC50: 340 nM
HeLa (cervix)
  IC50: 1350 nM
A549 (lung)
  IC50: 500 nM
SK-MEL-28 (melanoma)
  IC50: 1380 nM
OVCAR-3 (ovary)
  IC50: 800 nM
LnCap (prostate)
  IC50: 2670 nM
HepG2 (liver)
  IC50: 790 nM
HT-29 (colon)
  IC50: 280 nM
